# Patent US8486431B2 (priority 2005, dated 2013)
# Tests used:
# [1] = tested on: Type A influenza strain A/PR8 (H1N1); parameters: species or system mice; conditions: mouse, in vivo
# [2] = tested on: Type A influenza strain A/PR8 (H1N1); conditions: mouse, in vivo
# [3] = target: T1, glucose-6-phosphate dehydrogenase (G6PD) (Saccharomyces cerevisiae, UniProt P11412); experiment: Protein denaturation experiment: enzyme activity of G6PD reacted with chlorine dioxide; type: biochemical, yeast; conditions: 0.07 ppm chlorine dioxide in PBS pH7; 25° C., 2 minutes; compared with 0 ppm
# T1 construct: purchased Sigma Corp
# Protocol: The enzyme activity of G6PD was determined by observing absorption of NADPH by a spectral photometer, with using NADP and glucose-phosphoric acid as the substrate. Specific reaction conditions were set according to the manufacturer's (Sigma Corp.) instructions.
# The concentration values on the horizontal axis are shown as being converted into the unit of ppm. The “specific activity” on the vertical axis represents enzyme activity (unit/mg) per 1 mg of protein
# T1 sequence (P11412 whole entry): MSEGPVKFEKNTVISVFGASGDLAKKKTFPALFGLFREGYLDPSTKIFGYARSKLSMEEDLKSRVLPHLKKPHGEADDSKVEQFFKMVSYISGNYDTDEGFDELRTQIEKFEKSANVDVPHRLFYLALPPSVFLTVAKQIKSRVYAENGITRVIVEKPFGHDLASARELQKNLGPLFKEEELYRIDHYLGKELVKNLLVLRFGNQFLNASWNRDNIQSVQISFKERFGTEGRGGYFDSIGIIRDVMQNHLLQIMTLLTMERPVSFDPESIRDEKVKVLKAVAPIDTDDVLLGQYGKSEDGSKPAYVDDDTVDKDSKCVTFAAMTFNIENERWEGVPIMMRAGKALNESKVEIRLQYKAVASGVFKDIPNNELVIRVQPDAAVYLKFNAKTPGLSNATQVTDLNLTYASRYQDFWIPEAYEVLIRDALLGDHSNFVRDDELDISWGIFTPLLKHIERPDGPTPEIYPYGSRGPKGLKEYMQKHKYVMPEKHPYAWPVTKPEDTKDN
smiles,measurement,setting,value
[O][Cl+][O-] [chlorine dioxide],Total virus amount in lung tissues on Day 3 after 10 LD50 virus exposure (TClD50 values),[1],10^3 TClD50
same,lung virus amount relative to that of the control group (0 ppm group),[1],5%
same,total virus amounts in lung after delayed administration,[1],smaller than expected
same,chlorine dioxide concentration required for preventing influenza virus infection,[2],0.0001 ppm
same,chlorine dioxide gas concentration effective for influenza onset inhibition,[2],at least 0.05 ppm
same,deaths compared with 0 ppm group,[2],deaths occurred with delay
same,number of onsets of influenza and virus amount in the lung versus control group (0 ppm),[2],no significant difference was found
same,reduction in the enzyme activity of G6PD,[3],about 60%
